Columns and labels:
ABC-1 = test: Viability of NSCLC cell line, high N-Myc (FIG. 2A); type: cell-based; conditions: ABC-1, high N-Myc; compared to low N-Myc lines EBC-1, NCI-H2023
GSPT1 [1] = target: T1, GSPT1 (Homo sapiens (Human), UniProt P15170+Q96SW2); test: GSPT1 degradation in cells treated with compound (FIG. 1A); type: cell-based; conditions: cells treated with 0.3 µM
Target sequence in this assay (P15170 whole entry, looked up): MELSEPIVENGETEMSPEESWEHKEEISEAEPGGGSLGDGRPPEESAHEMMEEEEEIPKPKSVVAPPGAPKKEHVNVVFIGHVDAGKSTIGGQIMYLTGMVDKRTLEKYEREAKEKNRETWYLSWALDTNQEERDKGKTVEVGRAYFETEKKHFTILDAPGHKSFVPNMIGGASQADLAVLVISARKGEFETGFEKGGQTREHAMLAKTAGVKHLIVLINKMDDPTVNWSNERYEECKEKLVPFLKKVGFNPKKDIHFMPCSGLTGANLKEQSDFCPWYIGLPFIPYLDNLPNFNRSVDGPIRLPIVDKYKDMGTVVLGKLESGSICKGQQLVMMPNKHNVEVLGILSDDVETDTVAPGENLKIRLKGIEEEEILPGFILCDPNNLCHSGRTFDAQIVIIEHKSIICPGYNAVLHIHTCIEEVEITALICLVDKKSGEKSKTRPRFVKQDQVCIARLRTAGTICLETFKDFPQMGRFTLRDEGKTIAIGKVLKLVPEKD
Target sequence in this assay (Q96SW2 whole entry, looked up): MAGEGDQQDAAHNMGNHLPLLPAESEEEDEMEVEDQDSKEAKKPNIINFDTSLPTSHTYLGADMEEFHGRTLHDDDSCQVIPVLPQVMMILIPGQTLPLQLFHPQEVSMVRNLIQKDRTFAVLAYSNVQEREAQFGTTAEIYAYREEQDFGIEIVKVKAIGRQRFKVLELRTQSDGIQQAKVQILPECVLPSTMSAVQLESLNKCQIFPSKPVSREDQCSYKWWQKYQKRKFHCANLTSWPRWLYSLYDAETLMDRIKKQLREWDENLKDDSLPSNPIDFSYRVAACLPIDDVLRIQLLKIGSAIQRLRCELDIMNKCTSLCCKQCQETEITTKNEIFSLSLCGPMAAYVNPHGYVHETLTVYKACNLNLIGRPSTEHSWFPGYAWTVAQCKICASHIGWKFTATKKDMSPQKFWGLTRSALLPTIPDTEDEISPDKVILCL
Target sequence in this assay (Q16531 whole entry partner, looked up): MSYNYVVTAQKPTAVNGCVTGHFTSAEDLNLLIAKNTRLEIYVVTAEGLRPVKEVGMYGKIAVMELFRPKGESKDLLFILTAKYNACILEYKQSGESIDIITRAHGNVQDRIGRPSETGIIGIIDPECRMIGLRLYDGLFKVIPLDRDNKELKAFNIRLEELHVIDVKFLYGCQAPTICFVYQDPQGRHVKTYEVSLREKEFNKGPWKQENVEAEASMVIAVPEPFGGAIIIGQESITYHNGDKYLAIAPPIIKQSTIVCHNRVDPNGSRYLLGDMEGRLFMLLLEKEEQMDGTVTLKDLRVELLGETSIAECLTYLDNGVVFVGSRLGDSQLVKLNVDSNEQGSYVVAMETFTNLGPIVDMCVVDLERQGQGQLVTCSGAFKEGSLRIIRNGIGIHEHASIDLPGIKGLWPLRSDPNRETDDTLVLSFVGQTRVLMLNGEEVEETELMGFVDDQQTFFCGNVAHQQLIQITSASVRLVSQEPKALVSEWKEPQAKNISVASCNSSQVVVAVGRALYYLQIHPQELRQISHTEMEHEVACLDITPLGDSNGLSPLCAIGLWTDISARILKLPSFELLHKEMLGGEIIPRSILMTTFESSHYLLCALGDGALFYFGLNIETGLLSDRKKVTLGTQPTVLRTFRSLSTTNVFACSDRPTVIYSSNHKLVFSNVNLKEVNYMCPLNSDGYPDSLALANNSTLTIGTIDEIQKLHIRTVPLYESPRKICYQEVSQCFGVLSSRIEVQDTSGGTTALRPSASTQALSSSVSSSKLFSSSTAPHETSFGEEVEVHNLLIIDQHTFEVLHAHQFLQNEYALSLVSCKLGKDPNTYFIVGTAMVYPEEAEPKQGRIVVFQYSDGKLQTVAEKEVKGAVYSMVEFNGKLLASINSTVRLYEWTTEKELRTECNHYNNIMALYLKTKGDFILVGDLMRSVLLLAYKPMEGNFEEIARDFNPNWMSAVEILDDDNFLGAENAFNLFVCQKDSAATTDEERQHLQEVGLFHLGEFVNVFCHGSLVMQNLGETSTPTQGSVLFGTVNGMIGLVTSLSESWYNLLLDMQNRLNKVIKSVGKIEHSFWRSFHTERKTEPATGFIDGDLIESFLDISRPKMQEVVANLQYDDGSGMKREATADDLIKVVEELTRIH

GSPT1 [2] = target: T1, GSPT1; test: GSPT1 levels by western blotting and densitometry in NCI-H1155 and ABC-1 cell lines; type: cell-based; conditions: for DC50: six hours
Experimental: The anti-proliferative activity of compound 10 was tested on representative N-Myc high and N-Myc low cell lines (NCI-H1155, ABC-1 and EBC-1, NCI-H2023, respectively) following treatment with compound for 72 hours. Cells were sub-cultures as recommended by the providers (ATCC, DSMZ) and incubated at 37° C., 5% CO2. All cells were authenticated and confirmed by Short Tandem Repeat (STR) profiling. Briefly, cells were seeded to the appropriate density to allow logarithmic growth over the assay period in 96-well opaque-walled clear bottom plates (from Corning, Cat. No. 3903, Lot. No. 16419061; 100 μL total volume) and incubated overnight. Compound 10 and DMSO control were subsequently dispensed to the plates using HPD300 and a 9 data-point titration curve with concentrations ranging from 30 μM to 0.1 nM. Dilutions were prepared fresh prior to the assay using a 10 mM DMSO stock. Final DMSO concentration was 0.5%. The plates were incubated for 3 days at 5% CO2, 37° C. Cell viability was assessed using the CellTiter-Glo assay kit as recommended by the Manufacturer (Promega, Cat. No. G7558, Lot. No. 0000385738) and measurements performed on the EnSpire multimode plate reader (Perkin Elmer). EC50 values were determined using Prism8 (GraphPad) and the asymmetric (five-parameter) equation and least squares fit. GSPT1 levels were assessed in the NCI-H1155 and ABC-1 cell lines by densitometry analysis following treatment with compound 10 for 6 hours and western blotting analysis. […] Membranes were then transferred between two clean sheets of plastic and chemiluminescence (GSPT1), Dylight680 fluorescence (GAPDH) as well as colorimetric (molecular weight standard) signals were detected using a Chemidoc MP imaging system (BioRad 17001402). For chemiluminescence and colorimetric signals “optimal automatic exposure” settings (3×3 binning) were employed while fluorescence was detected using 1-4 seconds exposure time to achieve best GAPDH signals and avoid overexposure. […]
Target sequence in this assay (P15170 whole entry): as the sequence (P15170 whole entry, looked up) above
Target sequence in this assay (Q96SW2 whole entry): as the sequence (Q96SW2 whole entry, looked up) above
Target sequence in this assay (Q16531 2-1140 partner): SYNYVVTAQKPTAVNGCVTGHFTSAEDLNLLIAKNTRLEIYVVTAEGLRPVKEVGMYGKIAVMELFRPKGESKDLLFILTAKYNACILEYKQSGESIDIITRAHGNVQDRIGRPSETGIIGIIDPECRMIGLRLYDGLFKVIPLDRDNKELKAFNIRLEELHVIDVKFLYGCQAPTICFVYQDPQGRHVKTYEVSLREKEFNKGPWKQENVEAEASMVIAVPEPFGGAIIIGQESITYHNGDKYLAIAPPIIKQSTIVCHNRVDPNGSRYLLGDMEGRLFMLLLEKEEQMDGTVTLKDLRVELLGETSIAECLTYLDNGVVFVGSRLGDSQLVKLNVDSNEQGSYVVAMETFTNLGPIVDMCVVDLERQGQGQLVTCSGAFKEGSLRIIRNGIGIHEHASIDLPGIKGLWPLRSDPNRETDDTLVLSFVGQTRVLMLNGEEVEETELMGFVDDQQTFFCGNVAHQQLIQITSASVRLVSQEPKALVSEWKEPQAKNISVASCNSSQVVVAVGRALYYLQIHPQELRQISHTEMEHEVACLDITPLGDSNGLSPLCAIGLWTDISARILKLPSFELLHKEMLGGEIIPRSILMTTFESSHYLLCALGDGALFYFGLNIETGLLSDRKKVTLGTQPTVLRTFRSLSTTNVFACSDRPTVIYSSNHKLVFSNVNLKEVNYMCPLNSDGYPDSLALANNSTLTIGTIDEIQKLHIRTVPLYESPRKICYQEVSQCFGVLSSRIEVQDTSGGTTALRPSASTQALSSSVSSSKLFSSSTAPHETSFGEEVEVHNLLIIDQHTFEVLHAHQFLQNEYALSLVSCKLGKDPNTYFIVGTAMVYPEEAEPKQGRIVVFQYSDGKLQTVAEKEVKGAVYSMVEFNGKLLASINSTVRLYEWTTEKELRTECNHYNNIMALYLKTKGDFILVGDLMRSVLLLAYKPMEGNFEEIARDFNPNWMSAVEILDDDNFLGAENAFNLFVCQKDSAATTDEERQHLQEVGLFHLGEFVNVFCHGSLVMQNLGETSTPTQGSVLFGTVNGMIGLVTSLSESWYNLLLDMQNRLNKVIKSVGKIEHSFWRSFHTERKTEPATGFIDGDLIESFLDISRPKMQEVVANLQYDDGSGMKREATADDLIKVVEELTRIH

IKZF1 = IKZF1 (Homo sapiens (Human), UniProt Q13422); test: IKZF1 degradation in cells treated with compound (FIG. 1A); type: cell-based; conditions: concentrations up to 30 µM
Chain of IKZF1 (Q13422 whole entry, looked up): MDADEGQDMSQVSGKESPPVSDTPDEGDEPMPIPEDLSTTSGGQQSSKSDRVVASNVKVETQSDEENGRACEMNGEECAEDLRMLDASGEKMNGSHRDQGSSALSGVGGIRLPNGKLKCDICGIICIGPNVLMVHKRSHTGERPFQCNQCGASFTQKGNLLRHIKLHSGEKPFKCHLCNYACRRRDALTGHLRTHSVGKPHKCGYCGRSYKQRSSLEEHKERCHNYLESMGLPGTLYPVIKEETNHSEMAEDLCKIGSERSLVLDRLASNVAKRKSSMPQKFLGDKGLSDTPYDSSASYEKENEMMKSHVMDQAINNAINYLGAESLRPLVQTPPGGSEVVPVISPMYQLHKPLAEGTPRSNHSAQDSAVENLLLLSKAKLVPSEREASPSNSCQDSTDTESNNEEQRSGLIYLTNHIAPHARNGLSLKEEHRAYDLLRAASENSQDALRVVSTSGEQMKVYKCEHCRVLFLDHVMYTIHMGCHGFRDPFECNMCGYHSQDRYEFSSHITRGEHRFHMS

SALL = SALL (Homo sapiens (Human), UniProt Q9UJQ4); test: SALL degradation in cells treated with compound (FIG. 1A); type: cell-based; conditions: concentrations up to 30 µM
CK1alpha = CK1alpha (Homo sapiens (Human), UniProt P48729); test: CK1alpha degradation in cells treated with compound (FIG. 1A); type: cell-based; conditions: concentrations up to 30 µM
Chain of CK1alpha (P48729 whole entry, looked up): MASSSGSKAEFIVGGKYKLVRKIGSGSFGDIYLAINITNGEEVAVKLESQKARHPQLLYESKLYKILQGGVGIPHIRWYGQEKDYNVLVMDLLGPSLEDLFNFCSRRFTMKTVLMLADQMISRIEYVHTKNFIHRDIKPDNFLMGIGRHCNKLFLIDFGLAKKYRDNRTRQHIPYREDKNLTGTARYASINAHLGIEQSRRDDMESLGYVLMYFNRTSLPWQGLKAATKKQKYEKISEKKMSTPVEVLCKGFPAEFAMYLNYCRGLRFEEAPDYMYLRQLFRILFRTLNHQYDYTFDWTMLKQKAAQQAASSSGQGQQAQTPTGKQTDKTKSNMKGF

NCI-H1155 = test: Viability of NSCLC cell line, high N-Myc (FIG. 2A); type: cell-based, human; conditions: compared to low N-Myc lines EBC-1, NCI-H2023
IKZF3 = IKZF3 (Homo sapiens (Human), UniProt Q9UKT9); test: IKZF3 degradation in cells treated with compound (FIG. 1A); type: cell-based; conditions: concentrations up to 30 µM
Chain of IKZF3 (Q9UKT9 whole entry, looked up): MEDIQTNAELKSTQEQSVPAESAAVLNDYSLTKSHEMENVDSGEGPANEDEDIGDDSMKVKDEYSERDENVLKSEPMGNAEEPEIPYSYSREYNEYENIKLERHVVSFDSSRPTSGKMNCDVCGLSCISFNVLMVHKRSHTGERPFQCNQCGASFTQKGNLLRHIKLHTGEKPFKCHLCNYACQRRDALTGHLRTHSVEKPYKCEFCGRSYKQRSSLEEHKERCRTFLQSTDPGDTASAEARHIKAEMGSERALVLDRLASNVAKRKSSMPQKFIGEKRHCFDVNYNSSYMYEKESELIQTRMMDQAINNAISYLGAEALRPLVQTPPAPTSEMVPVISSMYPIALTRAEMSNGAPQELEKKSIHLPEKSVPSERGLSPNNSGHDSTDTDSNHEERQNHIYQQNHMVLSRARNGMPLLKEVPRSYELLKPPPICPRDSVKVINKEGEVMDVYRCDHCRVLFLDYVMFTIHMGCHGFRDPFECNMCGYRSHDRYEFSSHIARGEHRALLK

[3] = tested on: human cell line NCI-H1155; test: N-Myc-driven mouse xenograft model, NCI-H1155 (FIG. 3A); type: in vivo; conditions: for tumor size (tumor volume): study to day 21
[4] = tested on: NCI-H1155 cells (human non small cell lung cancer); test: NCI-H1155 xenograft study; type: in vivo, female BALB/c nude mice
Experimental: For the NCI-H1155 xenograft study, cells (human non small cell lung cancer, ATCC CRL-5818) were maintained in vitro as suspension culture in ATCC-formulated DMEM:F12 Medium supplemented as recommended by the provider and kept at 37° C. in an atmosphere of 5% CO2 in air. Cells (0.5 millions) were resuspended in 0.2 mL of PBS with Matrigel (50:50) and inoculated into female BALB/c nude mice, 6-8 weeks old, and allowed to grow to 150 mm^3 in size. Mice were dosed orally with either vehicle or compound 10 at 1 or 3 mg per kilogram daily (filled squares and filled triangles, respectively) or 6 mg per kilogram for 5 continous days followed by 9 days treatment holidays (5 On-9 off) (filled inverted triangles). Compound formulations were prepared fresh daily in 5%vDMSO/95%(30% w/v HP-β-CD in water). Gemcitabine dosed at 40 mg per kilogram, IP, Q4D×5 was used as a positive control (filled rhombi). For this study, mice were dosed for 21 days with tumor volumes measured every 3 days.

GSPT1 [5] = target: T1, GSPT1; test: Mass spectrometry-based proteomics analysis of a treated cancer cell line (FIG. 1B); conditions: cancer cell line treated with compound; fold-change (log2) vs p-value
Target sequence in this assay (P15170 whole entry, looked up): as the sequence (P15170 whole entry, looked up) above
Target sequence in this assay (Q96SW2 whole entry, looked up): as the sequence (Q96SW2 whole entry, looked up) above
Target sequence in this assay (Q16531 whole entry partner, looked up): as the sequence (Q16531 whole entry partner, looked up) above

[6] = tested on: NCI-H1155, ABC-1 and EBC-1, NCI-H2023; test: viability assay (CellTiter-Glo) in N-Myc high and N-Myc low NSCLC cell lines; type: cell-based; conditions: 72 hours
Experimental: The anti-proliferative activity of compound 10 was tested on representative N-Myc high and N-Myc low cell lines (NCI-H1155, ABC-1 and EBC-1, NCI-H2023, respectively) following treatment with compound for 72 hours. Cells were sub-cultures as recommended by the providers (ATCC, DSMZ) and incubated at 37° C., 5% CO2. All cells were authenticated and confirmed by Short Tandem Repeat (STR) profiling. Briefly, cells were seeded to the appropriate density to allow logarithmic growth over the assay period in 96-well opaque-walled clear bottom plates (from Corning, Cat. No. 3903, Lot. No. 16419061; 100 μL total volume) and incubated overnight. […] Cell viability was assessed using the CellTiter-Glo assay kit as recommended by the Manufacturer (Promega, Cat. No. G7558, Lot. No. 0000385738) and measurements performed on the EnSpire multimode plate reader (Perkin Elmer). EC50 values were determined using Prism8 (GraphPad) and the asymmetric (five-parameter) equation and least squares fit. GSPT1 levels were assessed in the NCI-H1155 and ABC-1 cell lines by densitometry analysis following treatment with compound 10 for 6 hours and western blotting analysis. […] For chemiluminescence and colorimetric signals “optimal automatic exposure” settings (3×3 binning) were employed while fluorescence was detected using 1-4 seconds exposure time to achieve best GAPDH signals and avoid overexposure. […]

In the case of Cc1ccc(NC(=O)OCc2ccc3c(c2)C(=O)N(C2CCC(=O)NC2=O)C3)cc1Cl (stereo not shown) [Compound 10], the “sensitivity to treatment (viability in %)” value (ABC-1) is reported as “highly sensitive”, the “degradation of GSPT1” value (GSPT1 [1]) is reported as “complete degradation” and the DC50 (GSPT1 [2]; ABC-1 cells) is reported as 22 nM. For the same molecule, the DC50 (GSPT1 [2]; NCI-H1155 cells) was 3 nM, the GSPT1 degradation (GSPT1 [2]; high N-Myc NCI-H1155 and ABC-1 cells, six hours of treatment) was “Complete degradation of GSPT1” and the “degradation of IKZF1” value (IKZF1) was “no induction of degradation”. The “degradation of SALL” value (SALL) was “no induction of degradation”, the “degradation of CK1alpha” value (CK1alpha) was “no induction of degradation” and the “sensitivity to treatment (viability in %)” value (NCI-H1155) was “highly sensitive”. The “degradation of IKZF3” value (IKZF3) was “no induction of degradation”, the “tumor growth (tumor volume)” value ([3]; 1 mg/kg PO once daily) was “tumor growth was suppressed for two weeks” and the “tumor size (tumor volume)” value ([3]; 3 mg/kg PO once daily) was “tumor size decreased, became undetectable by day eight and remained so until the end of the study at day 21”. For the same molecule, the “tumor size (tumor volume)” value ([3]; 6 mg/kg PO five days on and nine days off) was “tumor size decreased, became undetectable by day eight and remained so until the end of the study at day 21”, the body weight ([3]; oral administration) was “no body weight loss” and the “effect on tumor growth (tumor volume)” value ([3]; oral administration) was “tumor growth inhibition”. For the same molecule, the “tumor growth (FIG. 3A)” value ([4]; 1 mg/kg once daily, oral) was “tumor growth was suppressed for two weeks”, the “tumor size (FIG. 3A)” value ([4]; 3 mg/kg once daily, oral) was “tumor size decreased, became undetectable by day eight and remained so until the end of the study at day 21” and the “tumor size (FIG. 3A)” value ([4]; 6 mg/kg five days on and nine days off, oral) was “tumor size decreased, became undetectable by day eight and remained so until the end of the study at day 21”. For the same molecule, the body weight ([4]; oral administration) was “no body weight loss observed”, the “tumor growth (FIG. 3A)” value ([4]; oral administration) was “tumor growth inhibition” and the “GSPT1 protein change in proteomics analysis” value (GSPT1 [5]) was “most statistically significant downregulated protein”. For the same molecule, the “anti-proliferative sensitivity (FIG. 2A)” value [6] was “sensitivity correlated with the expression of N-Myc”.

— patent US11912682B2, “Isoindolinone compounds” (Monte Rosa Therapeutics, Inc., priority 2021, dated 2024)
